Reference: US20230263822A1, “MODULATION OF FACTOR 11 EXPRESSION” (Ionis Pharmaceuticals, Inc., priority 2008, published 2023)
Read-outs that look alike come from different tables or passages of the source. e = 2'-O-(2-methoxyethyl) (MOE); d = 2'-deoxy (DNA)

Assays:
[1] = Tail bleeding assay vs warfarin (Example 12)
Description: A separate control group of BALB/c mice was treated with PBS, administered subcutaneously twice a week for 3 weeks.
Mice were anesthetized in the chamber with isoflurane and a small piece of tail (approximately 4 mm from the tip) was cut with sterile scissors. The tail cut was immediately placed in a 15 mL Falcon tube filled with approximately 10 mL of 0.9% NaCl buffer solution warmed to 37° C. The blood was collected over the course of 40 minutes. The saline filled tubes were weighed both before and after bleeding.

blood coagulation [2] = assay: PT and aPTT vs warfarin (Example 13); assay type: in vivo, BALB/c mice; conditions: for aPTT INR / PT INR: PPP two days after final dose
Description: In a control group, BALB/c mice were treated with PBS, administered subcutaneously mice twice a week for 3 weeks.
Two days after the final dose was administered, PPP was collected and PT and aPTT assays were performed.
PT and aPTT values provided in Table 16 are reported as International Normalized Ratio (INR) values. […] This ratio was then raised to the power of the International Sensitivity Index (ISI) of the tissue factor used.

[3] = Collagenase-induced intracerebral hemorrhage model: hemorrhage volume, neurologic deficit score, mortality (Example 25); assay type: in vivo, BALB/c mice; conditions: ISIS oligonucleotides 40 mg/kg s.c., warfarin 2 mg/kg intraperitoneally, twice a week for two weeks
Description: In a first cohort, ISIS 404071 was administered subcutaneously to BALB/c mice twice a week for two weeks at a dose 40 mg/kg. […] In a third cohort, ISIS 421208 ([…], 8 mismatches to murine Factor 11, incorporated herein as SEQ ID NO: 14) was administered subcutaneously to BALB/c mice twice a week for two weeks at a dose 40 mg/kg. In a fourth cohort, PBS was administered to BALB/c mice twice a week for two weeks.
Two days after receiving their final dose, all mice in all cohorts were anesthetized with […] of avertin. Next, the mice were injected at −1 mm AP, 1 mm R ML, −4 mm DV from bregma flat skull with a 10 μL Hamilton syringe containing 0.075 U collagenase (150 U/mL). Collagenase was delivered over 5 minutes and the needle was kept in place for an additional 5 minutes to prevent reflux. The mice were then analyzed for hemorrhagic size, neurologic deficit score, and mortality.
Table 37 presents the hemorrhage volume detected in mice after collagenase treatment, Table 38 presents the neurologic deficit score of the mice, and Table 39 presents the mortality rate of the mice. Neurological deficit is measured by a standard scoring system where no deficiency is zero and severe deficit is five.

blood coagulation [4] = assay: PT and aPTT, combination with warfarin (Example 21); assay type: in vivo, BALB/c mice
Description: Plasma was collected from each group 5 days after the last dose was administered. […] In a final group of BALB/c mice, PBS was administered subcutaneously twice a week for three weeks, as a control. Plasma was collected 5 days after the last PBS treatment.
PT and aPTT values provided in Table 33 are reported as International Normalized Ratio (INR) values.

Factor 11 mRNA = Factor 11 mRNA in liver, FeCl3 induced venous thrombosis model vs warfarin (Example 11); assay type: in vivo, BALB/c mice; conditions: FeCl3 induced VT model; ISIS 404071 1.25-40 mg/kg s.c. twice a week 3 weeks; warfarin 0.5-5 mg/kg daily 6 days
Description: (§1) Two control groups of BALB/c mice were treated with PBS, administered subcutaneously twice a week for 3 weeks. Two days after the last dose of PBS, mice in both groups were anesthetized with 150 mg/kg ketamine mixed with 10 mg/kg xylazine administered by intraperitoneal injection. Thrombus formation was induced with FeCl3 in all groups of mice except the first control group.
(§2) In mice undergoing FeCl3 treatment, thrombus formation was induced by applying a piece of filter paper (2×4 mm) pre-saturated with 10% FeCl3 solution directly on the vena cava. After 3 minutes of exposure, the filter paper was removed. Thirty minutes after the filter paper application, a fixed length of the vein containing the thrombus was dissected out for platelet analysis. Liver was collected for RNA analysis.
RNA was extracted from liver tissue for real-time PCR analysis of Factor 11.

platelet factor-4 (PF-4) = assay: Thrombus formation by PF-4 real-time PCR, FeCl3 induced venous thrombosis model vs warfarin (Example 11); assay type: in vivo, BALB/c mice; conditions: for PF-4 in vena cava, percentage as compared to PBS controls (thrombus formation): + FeCl3
Description: as §1, §2
Real-time PCR quantification of platelet factor-4 (PF-4) was used to quantify platelets in the vena cava as a measure of thrombus formation.

[5] = system: mesenteric vein thrombosis; assay: Mesenteric vein thrombosis, intravital microscopy (Example 22); assay type: in vivo; conditions: C57BL/6 mice, 50 mg/kg s.c. twice a week for three weeks, 10% FeCl3 on mesenteric vein
Description: In a first cohort, ISIS 404071 was administered subcutaneously to C57BL/6 mice twice a week for three weeks at a dose of 50 mg/kg. In a second cohort, a control oligonucleotide, ISIS 405277 ([…]; antisense oligonucleotide for Factor 2), incorporated herein as SEQ ID NO: 12 was administered subcutaneously to C57Bl/6 mice twice a week for three weeks at a dose of 50 mg/kg.
Blood was collected from the retro-orbital venous plexus of naïve C57BL/6 mice by puncture and collected in polypropylene tubes containing 300 μl of heparin (30 U/ml). Platelet rich plasma (PRP) was obtained by centrifugation at 1000 rpm for 5 min. The PRP was transferred to fresh tubes containing 2 μl of Prostaglandin I2 (PGI2) (2 μg/ml) and incubated at 37° C. for 5 min. After centrifugation at 2600 rpm, pellets were resuspended in 1 ml modified Tyrode's-HEPES buffer (137 mM NaCl, 0.3 mM Na2HPO4, 2 mM KCl, 12 mM NaHCO3, 5 mM HEPES, 5 mM glucose, 0.35% BSA, pH 7.2) containing 2 μl of PGI2 and incubated at 37° C. for 5 min. The suspended pellet was centrifuged at 2600 rpm for 5 min. To remove PGI2, the washing step was repeated twice and platelets were fluorescently labeled with calcein AM 2.5 μg/mL (Molecular Probes, Eugene, Oreg.) for 10 min at room temperature.
Fluorescently-labeled platelets were injected intravenously in ISIS 404071 treated and control oligonucleotide treated C57BL/6 mice. […] The exposed mesentery was kept moist throughout the experiment by periodic superfusion with warmed (37° C.) PBS. The mesentery was transluminated with a 12V, 100 W, DC stabilized source. Veins were visualized using a Zeiss (Germany) Axiovert 135 inverted microscope (Objective 32X) connected to an SVHS video recorder (AG-6730; Panasonic, Tokyo, Japan) using a CCD video camera (Hamamatsu Photonic Systems, Hamamatsu City, Japan). Centerline erythrocyte velocity (Vrbc) was measured using an optical Doppler velocimeter (Microcirculation Research Institute, Texas A&M College of Medicine, College Station, Tex.). Venular shear rate (τ) was calculated based on Poiseuille's Law for a newtonian fluid, τ=8(Vmean/Dv), where Dv is the diameter of the venule and Vmean is estimated from the measured Vrbc using the empirical correlation Vmean=Vrbc/1.6.
Mesenteric vein thrombosis was performed two days after the last antisense oligonucleotide injection. Thrombosis was induced by applying Whatman paper soaked in a 10% FeCl3 solution for 5 minutes on the mesenteric vein. The vein was monitored for 40 minutes, or until occlusion. The elapsed time before the first thrombus 30-50 μm in diameter and the elapsed time before blood stopped flowing for 30 seconds were observed.

[6] = rat, in vivo, sc, 50 mg/kg
[7] = mouse, in vivo, sc, 50 mg/kg
[8] = mouse, in vivo, sc, 50 mg/kg; remark: listed apart in the source
[9] = mouse, in vivo, sc, 50 mg/kg; remark: listed apart in the source
[10] = rat, in vivo, sc, 50 mg/kg; remark: listed apart in the source
[11] = rat, in vivo, sc, 50 mg/kg; remark: listed apart in the source
[12] = Warfarin 0.5 mg/kg intraperitoneally daily for 6 days
[13] = Warfarin 1 mg/kg intraperitoneally daily for 6 days
[14] = Warfarin 2 mg/kg intraperitoneally daily for 6 days
[15] = Warfarin 3 mg/kg intraperitoneally daily for 6 days
[16] = Warfarin 4 mg/kg intraperitoneally daily for 6 days
[17] = Warfarin 5 mg/kg intraperitoneally daily for 6 days
[18] = BALB/c mice, ISIS 404071 1.25-40 mg/kg, warfarin 0.5-5 mg/kg
[19] = BALB/c mice, ISIS 404071 25 or 50 mg/kg, warfarin 2 mg/kg
[20] = Warfarin 2 mg/kg once daily for 5 days

Molecule: CC(=O)CC(c1ccccc1)c1c(O)c2ccccc2oc1=O (stereo not shown) [warfarin]
- bleeding in tail bleeding assay ([1]; BALB/c mice, compared to PBS treated mice): did increase bleeding
- Blood (tail bleeding, collected over 40 minutes) [1, 12]: 0.07 g
- Blood (tail bleeding, collected over 40 minutes) [1, 13]: 0.35 g
- Blood (tail bleeding, collected over 40 minutes) [1, 14]: 0.39 g
- Blood (tail bleeding, collected over 40 minutes) [1, 15]: 0.51 g
- Blood (tail bleeding, collected over 40 minutes) [1, 16]: 0.52 g
- Blood (tail bleeding, collected over 40 minutes) [1, 17]: 0.76 g
- PT (blood coagulation [2]; [18]): significantly prolonged at every dosage
- aPTT (blood coagulation [2]; [18]): prolonged, particularly at dosages of 1 mg/kg and higher
- aPTT INR (blood coagulation [2]; [12]): 1.10 INR
- PT INR (blood coagulation [2]; [13]): 2.03 INR
- aPTT INR (blood coagulation [2]; [13]): 1.31 INR
- PT INR (blood coagulation [2]; [14]): 2.77 INR
- aPTT INR (blood coagulation [2]; [14]): 1.54 INR
- PT INR (blood coagulation [2]; [15]): 22.76 INR
- aPTT INR (blood coagulation [2]; [15]): 2.90 INR
- PT INR (blood coagulation [2]; [16]): 6.74 INR
- aPTT INR (blood coagulation [2]; [16]): 2.18 INR
- PT INR (blood coagulation [2]; [17]): 9.20 INR
- aPTT INR (blood coagulation [2]; [17]): 2.29 INR
- % mortality after collagenase treatment [3]: 80%
- PT (blood coagulation [4]; [19]): increase PT
- aPTT (blood coagulation [4]; [19]): affected
- PT INR (blood coagulation [4]; [20]): 21.33 INR
- aPTT INR (blood coagulation [4]; [20]): 2.52 INR
- Factor 11 mRNA in liver vs PBS control (Factor 11 mRNA): did not result in significant reduction of Factor 11
- PF-4 in vena cava as measure of thrombus formation (platelet factor-4 (PF-4); FeCl3 induced VT model, vs PBS control): reduction of PF-4 in comparison to the PBS control for dosages of 2 mg/kg and higher
- PF-4 in vena cava, percentage as compared to PBS controls (thrombus formation) (platelet factor-4 (PF-4); [12]): 128%
- PF-4 in vena cava, percentage as compared to PBS controls (thrombus formation) (platelet factor-4 (PF-4); [13]): 124%
- PF-4 in vena cava, percentage as compared to PBS controls (thrombus formation) (platelet factor-4 (PF-4); [14]): 80%
- PF-4 in vena cava, percentage as compared to PBS controls (thrombus formation) (platelet factor-4 (PF-4); [15]): 21%
- PF-4 in vena cava, percentage as compared to PBS controls (thrombus formation) (platelet factor-4 (PF-4); [16]): 12%
- PF-4 in vena cava, percentage as compared to PBS controls (thrombus formation) (platelet factor-4 (PF-4); [17]): 33%

Molecule: ISIS 405277: control oligonucleotide AAGGACCTACACTATGGAAT; antisense oligonucleotide for Factor 2 (listed as DNA, chemistry not given here) [reference compound]
- time of occlusion (occlusive thrombi) [5]: 19.3 ± 0.8 min
- time of thrombus formation (30 μm in diameter) [5]: 8.9 ± 0.6 min

Molecule: ISIS 445513: 5-8-5 or 6-8-6 MOE microwalk gapmer (Table 44) (antisense GCAGCGGACGGCATTGGTGC; sugars from the 5' end e6 d8 e6, backbone and methylation of C not given here)
- HCT [6]: 44%
- Lymphocyte [6]: 82%
- Neutrophil [6]: 14%
- Platelets [6]: 1051 nL⁻¹
- RBC [6]: 7.8 pL⁻¹
- WBC [6]: 17 nL⁻¹
- hemoglobin [6]: 13.0 g/dL
- monocytes [6]: 3.5%
- BUN [7]: 27 mg/dL
- ALT [8]: 37 IU/L
- AST [8]: 84 IU/L
- Albumin [8]: 3.1
- Bilirubin [8]: 0.22 mg/dL
- Lymphocyte [9]: 5523
- Neutrophil [9]: 959
- Platelets [9]: 942
- BUN [10]: 24 mg/dL
- Creatinine [10]: 0.4 mg/dL
- Urine protein/creatinine ratio [10]: 4.6
- ALT [11]: 214 IU/L
- AST [11]: 91 IU/L
- Albumin [11]: 3.5
- Bilirubin [11]: 0.15 mg/dL

Molecule: ISIS 445530: 5-8-5 or 6-8-6 MOE microwalk gapmer (Table 44) (antisense GCATTGGTGCACAGTTTC; sugars from the 5' end e5 d8 e5, backbone and methylation of C not given here)
- HCT [6]: 50%
- Lymphocyte [6]: 87%
- Neutrophil [6]: 11%
- Platelets [6]: 1249 nL⁻¹
- RBC [6]: 8.9 pL⁻¹
- WBC [6]: 12 nL⁻¹
- hemoglobin [6]: 14.7 g/dL
- monocytes [6]: 2.0%
- BUN [7]: 26 mg/dL
- ALT [8]: 104 IU/L
- AST [8]: 136 IU/L
- Albumin [8]: 3.2
- Bilirubin [8]: 0.18 mg/dL
- HCT [9]: 50%
- Lymphocyte [9]: 5488
- Neutrophil [9]: 930
- Platelets [9]: 849
- RBC [9]: 10.0
- WBC [9]: 7
- hemoglobin [9]: 15.1 g/dL
- BUN [10]: 22 mg/dL
- Creatinine [10]: 0.4 mg/dL
- Urine protein/creatinine ratio [10]: 4.2
- ALT [11]: 116 IU/L
- AST [11]: 56 IU/L
- Albumin [11]: 3.7
- Bilirubin [11]: 0.11 mg/dL
